Data on three molecules can be found in paper PMC8826726, “Selective Toxicity of Secondary Metabolites from the Entomopathogenic Bacterium Photorhabdus luminescens sonorensis against Selected Plant Parasitic Nematodes of the Tylenchina Suborder” (Microbiology Spectrum, 2022).

The test system of one data set is Meloidogyne incognita. Particulars: cited from earlier work.
The subject of the next data set is Caenorhabditis elegans. The conditions noted are these: cited from earlier work.
Data set [1] is described as follows: In vitro nematicidal assay, values summarised over the non-target nematodes. It is filed as cell-based. The conditions noted are these: non-target nematodes in 12-well tissue culture plates; 24 h exposure; species for which an LC50 was established; read-out: LC50 values, range over non-target nematodes.
Data set [2] relates to non-target nematodes versus targeted PPNs. Briefly: Selectivity index, non-target nematodes over targeted PPNs. Particulars: 24 h LC50. As for the experimental part:
The selectivity index of a given SM was calculated by dividing the averages of the LC50 or EC50 values obtained against each of the selected non-target nematodes by the LC50 or the EC50 values observed for each of the targeted PPN tested.

Data set [3] has as its system Tylenchulus semipenetrans J2 juveniles. Briefly: microbe, parasite or virus in culture. Particulars: mortality. From the text:
(§1) Only soil inhabiting (free-living or infective) stages of target and non-target nematode species were considered in the present study. All nematode cultures (except T. semipenetrans) were maintained in the Stock laboratory (University of Arizona). M. incognita was reared in planta using susceptible tomato plants (cv. Roma VF; seedlings with five or six true leaves; courtesy of Dr. J. Brown, University of Arizona). Eggs of M. incognita were extracted from infected tomato plant roots, and J2 were collected after hatching, following the procedures of Atamian et al. ([50]). T. semipenetrans was isolated from infested lemon orchards at the Yuma Agricultural Center, University of Arizona (Yuma, AZ, USA). Eggs of T. semipenetrans were extracted from infected lemon tree roots using the procedures of El-Borai et al. ([51]), and J2 were collected using the same procedure as that described for M. incognita.
(§2) Twelve-well tissue culture plates were used as the experimental arena. For each of the tested nematode species, an inoculum of 100 nematodes, suspended in 20 μL distilled water, was added to each well. […] For PPA (Enamine) and indole (Alfa Aesar), 13 incremental concentrations were tested ranging from 10 to 400 μg/mL in 1 mL of distilled water (DMSO ≤ 1%; vol/vol). […] Distilled water with 1% DMSO was used as the negative control. To measure the combined nematicidal effects of the three SMs, equal concentrations of two or three SMs were mixed in 1:1 or 1:1:1 mixture. For example, a 20 μg/mL solution of a two-SM mixture contained 20 μg from metabolite A and 20 μg metabolite B, dissolved in 1 mL distilled water. Individual or combined SMs from 10 μg/mL to 200 μg/mL (in 20 μg/ml increments) were prepared in distilled water (DMSO ≤ 1%; vol/vol) and used for the bioassays.
(§3) The well plates were covered with their lids and incubated at 25°C in the dark. For the targeted nematode species, nematicidal activity was recorded at 24 h, 48 h, and 72 h after initial exposure to the individual SMs. For the non-target species, data were only recorded at 24 h after initial exposure to the individual SMs. For SM mixtures, mortality was recorded 24 h after initial exposure of the targeted nematode species. Nematodes were probed with a needle to assess if they were alive, dead, or paralyzed. […] Those nematodes that resumed activity upon probing were considered to suffer from temporary paralysis (impaired motility). Paralyzed nematodes were rinsed at least three times in distilled water and held for an additional 24 h to check for their recovery from temporarily paralysis. […] Experiments were repeated at least three times per treatment for each concentration tested.
(§4) For the toxicity data visualization, the relationship between percent mortality or temporary paralysis and metabolite concentration were described by a sigmoidal curve, which was fitted by the logistical function using the statistical software package SigmaPlot for Windows, version 14.0 (Systat Software Inc.). […] Concentration-response data of single metabolites or SM mixtures were pooled for each concentration and subjected to probit regression analysis using the Polo Plus program (LeOra Software). The LC or EC values, along with the corresponding 95% confidence intervals, were estimated for each single SM or SM mixture at each exposure time, depending on the experimental setting.

In data set [4] the test system is Meloidogyne incognita J2 juveniles. Briefly: microbe, parasite or virus in culture. The conditions noted are these: for LC50 / LC10 / LC25 / LC90: mortality.
Source text: as §1, §2, §3, §4

The nature of the next data set: in vitro.
Source text: The non-target species, C. elegans wild-type strain N2 Bristol (courtesy of Dr. G.L. Sutphin, University of Arizona) and Rhabditis blumi DF5010 (Caenorhabditis Genetics Center, University of MN, USA) were maintained in vitro in nematode growth medium (NGM) agar plates seeded with Escherichia coli (Migula) Castellani and Chalmers, strain OP-50, as described previously ([52]). Mixed juveniles and hermaphrodites (5 to 6 days old) were collected from the culture plates prior to the bioassays. Infective third-stage juveniles (IJs) of three non-target entomopathogenic nematode species (H. sonorensis Caborca strain, H. bacteriophora TT01 strain, and Steinernema carpocapsae All strain) were also maintained by rearing them in vivo using wax moth larvae (Galleria mellonella) as the host, according to procedures described previously ([53]), and collected for bioassays within 2 to 4 days of their emergence from nematode-infected cadavers. Nematode population density (number of nematodes per ml) was standardized prior to setting up well-plate bioassays, by adjusting each nematode suspension to a concentration of 100 nematodes in 20 μL of distilled water.
as §2, §3, §4

Data set [5] relates to NCI-H460 (non-small cell lung cancer). Briefly: MTT cytotoxicity assay. It is filed as cell-based, human. The conditions noted are these: tested at 50, 100, 200 μM, data not shown. As to the method: (§5) The non-cancerous HFF cells (human foreskin cells) and three human cancer cell lines, NCI-H460 (non-small cell lung cancer), SF-268 (central nervous system glioma), and MCF-7 (breast cancer) were used to evaluate the in vitro cytotoxicity of the isolated Photorhabdus SMs. The MTT (3-(4,5-dimethylthiazol-2-yl)-2,5-diphenyltetrazolium bromide) colorimetric method ([54]) was used with doxorubicin as the positive control, and DMSO as the negative control. Photorhabdus SMs were tested at 50, 100, and 200 μM concentrations, and the assays were repeated three times.
(Tetrazolium dyes change colour on reduction, which living cells bring about.)

In data set [6] the test system is SF-268 (central nervous system glioma). Briefly: MTT cytotoxicity assay. Type of data set: cell-based, human. The conditions noted are these: tested at 50, 100, 200 μM, data not shown. As for the experimental part: as §5
Another data set relates to MCF-7 (breast cancer). Briefly: MTT cytotoxicity assay. Type of data set: cell-based, human. Particulars: tested at 50, 100, 200 μM, data not shown. As to the method: as §5
Data set [7] has as its system HFF cells (human foreskin cells). Briefly: MTT cytotoxicity assay. The conditions noted are these: tested at 50, 100, 200 μM, data not shown. Type of data set: cell-based. As for the experimental part: as §5

Values after ≈ are worked out from the molar mass of the structure shown.

With `CC(C)c1c(O)cc(C=Cc2ccccc2)cc1O` [3,5-dihydroxy-4-isopropylstilbene], in the data set with Meloidogyne incognita, the Nematicidal activity entry is listed as “no activity”. For the same molecule, in the data set on Caenorhabditis elegans, the “Toxicity to non-target bacterivorous nematode” value is reported as “toxic at similar concentrations (up to 100 μg/ml)”.

As for `O=C(O)CC/C=C/c1ccccc1` [PPA, (4E)-5-phenylpent-4-enoic acid], the LC50 at 24 h in data set [1] was 278 to 421 µg/mL (≈ 1580 to 2390 µM); in the data set “in vitro” (All, Steinernema carpocapsae), above 400 µg/mL; in “in vitro” (Caborca, Heterorhabditis sonorensis) it was above 400 µg/mL; in the data set “in vitro” (DF5010, Rhabditis blumi) it was 346 µg/mL (≈ 1960 µM); in the data set “in vitro” (N2 Bristol, Caenorhabditis elegans), 278 µg/mL (≈ 1580 µM); in “in vitro” (TT01, Heterorhabditis bacteriophora), above 400 µg/mL. For the same molecule, in data set [2], the “Selectivity index (LC50 for the non-target nematodes over those for the targeted PPNs)” value was in the range of 6 to 8. In addition, the median lethal concentration (LC50) stood at 66 µg/mL (≈ 375 µM) in data set [3] (Tylenchulus semipenetrans, 24 h, 24 h exposure); 59.8 µg/mL (≈ 339 µM) in [3] (Tylenchulus semipenetrans, 48 h, 48 h exposure); 42.2 µg/mL (≈ 239 µM) in data set [3] (Tylenchulus semipenetrans, 72 h, 72 h exposure); 66.3 µg/mL (≈ 376 µM) in data set [3] (24 h exposure); 44 µg/mL (≈ 250 µM) in [4] (Meloidogyne incognita, 24 h, 24 h exposure); 42 µg/mL (≈ 238 µM) in [4] (Meloidogyne incognita, 48 h, 48 h exposure). Moreover, the median lethal concentration (LC50) in data set [4] (Meloidogyne incognita, 72 h, 72 h exposure) was 38.9 µg/mL (≈ 221 µM); in data set [4] (24 h exposure), 44.4 µg/mL (≈ 252 µM). In addition, the LC10 in data set [3] (24 h exposure) is given as 50.8 (27.0, 60.5) μg/mL; in [3] (48 h exposure) it was 42.7 (31.2, 50.0) μg/mL; in [3] (72 h exposure) it was 19.3 (3.06, 31.9) μg/mL; in data set [4] (24 h exposure), 29.4 (22.1, 34.6) μg/mL; in data set [4] (48 h exposure), 27.6 (19.0, 33.3) μg/mL; in data set [4] (72 h exposure) it was 24.8 (16.0, 31.0) μg/mL. For the same molecule, the LC25 in [3] (24 h exposure) was 57.6 (36.6, 66.0) μg/mL; in [3] (48 h exposure) it was 50.1 (39.8, 56.6) μg/mL; in [3] (72 h exposure), 28.0 (8.0, 42.7) μg/mL; in [4] (24 h exposure), 35.8 (29.0, 40.5) μg/mL; in data set [4] (48 h exposure), 33.6 (25.7, 39.0) μg/mL; in [4] (72 h exposure), 30.7 (22.0, 36.6) μg/mL. The LC90 was 86.4 (78.2, 109.0) μg/mL in data set [3] (24 h exposure); 83.7 (76.3, 96.6) μg/mL in data set [3] (48 h exposure); 92.4 (60.6, 312.0) μg/mL in data set [3] (72 h exposure); 66.9 (61.4, 75.5) μg/mL in data set [4] (24 h exposure); 63.9 (57.2, 75.9) μg/mL in data set [4] (48 h exposure); 61.0 (52.7, 76.5) μg/mL in data set [4] (72 h exposure). Further, in data set [4] (24 h postexposure), the “Reduction of LC50 for M. incognita versus T. semipenetrans” value stood at 33%.

As for `O=C(O)/C=C/c1ccccc1` [t-CA, trans-cinnamic acid], the “In vitro cytotoxicity: none even at the highest concentration tested” value (in data set [5]; in data set [6]; in the data set with MCF-7 (breast cancer); in [7]) was above 200 µM in each case. Further, the LC10 in [3] (24 h exposure) was 53.1 (41.2, 61.2) μg/mL; in data set [3] (48 h exposure), 51.5 (39.7, 59.1) μg/mL; in data set [4] (24 h exposure), 42.7 (25.6, 52.2) μg/mL; in data set [4] (48 h exposure), 37.3 (19.1, 47.2) μg/mL. Besides, the LC25 in [3] (24 h exposure) was 62.8 (52.2, 70.0) μg/mL; in data set [3] (48 h exposure) it was 60.0 (49.6, 66.6) μg/mL; in data set [3] (72 h exposure) it was 54.9 (44.4, 61.8) μg/mL; in data set [4] (24 h exposure) it was 53.0 (38.0, 61.6) μg/mL; in data set [4] (48 h exposure), 45.7 (29.0, 55.1) μg/mL; in [4] (72 h exposure) it was 45.2 (37.7, 50.4) μg/mL. Moreover, the LC90 in data set [3] (24 h exposure) was 108.0 (100.0, 121.0) μg/mL; in [3] (48 h exposure) it was 98.0 (90.7, 110.0) μg/mL; in [3] (72 h exposure), 95.8 (88.2, 108.0) μg/mL; in data set [4] (24 h exposure), 106.0 (89.6, 159.0) μg/mL; in data set [4] (48 h exposure) it was 87.9 (73.0, 137.0) μg/mL; in [4] (72 h exposure), 69.7 (62.6, 82.9) μg/mL. Besides, the “Reduction of the LC90 at 72 h versus 24 h” value in [4] (M. incognita) turned out to be 34%.

What is called LC50 is the concentration that kills 50% of the test population.
